{
  "source": "patent US20240401101A1",
  "about": "“A LIVE CELL ASSAY TO DETERMINE PERMEABILITY OF TEST MOLECULES TO AND/OR WITHIN THE PEPTIDOGLYCAN SCAFFOLD OF BACTERIA CELLS” (priority 2021, published 2024)",
  "key": {"[1]": {"tested_on": "M. smegmatis mc^2 155", "test": "Example IV: metabolic PG labeling of Msm with DBCO tags followed by azide fluorophore, flow cytometry", "type": "cell-based, Mycobacterium smegmatis", "conditions": "for cellular fluorescence with azide-modified fluorophore in cells pre-labeled with TetD: 25 μM TetD, fluorophore 1 h at 37° C.", "description": "General method for bacterial peptidoglycan modification. M. smegmatis strains was inoculated from the glycerol stock to the according media and grown for 24 hours until 0.5-0.6 OD, tetrapeptide probes were added to the media and the cells were grown overnight to achieve stationary phase. The cells were harvested the next day and spun down for 2 min at 3000 g, washed with phosphate buffered saline with tween80 (PBST, PBS with 0.05% tween 80) two times and resuspended in PBST to yield DBCO-modified M. smegmatis cells for further labeling and other experiments.\n(§1) DBCOtetra compared with stereo control and single amino acid DBCO. M. smegmatis mc^2 155 was inoculated from stationary phase in 1:100 dilution to a fresh 7H9 media with ADC. 25 μM Dap-DBCO, DBCOtetra or DBCOtera(L) were added to the culture tubes respectively, and the cells were grown for 36-40 hours until stationary phase. The cells were harvested and spun down for 2 min at 3000 g, washed with PBST two times and resuspended in PBST. To a 96-well plate added 100 μL cells pre well with 50 μM FAM-N3 in triplicate. The plate was incubated in 37° C. for 1 h and spun down for 2 min at 3000 g. The supernatant was decanted, and the pellets were washed with PBST for 2 times and fixed with 4% formaldehyde for 15 mins. The samples were then analyzed by Attune™ NxT Acoustic Focusing Cytometer.\nas §1, with “Confirm for click chemistry on PG.” for “DBCOtetra compared with stereo control and single amino acid DBCO.”, “μM” for “μM Dap-DBCO,”, “FL-tetra” for “DBCOtera(L)”, “uL” for “μL”, “FAM-N3 or 5-carboxy fluorescein accordingly” for “FAM-N3”\nas §1, with “Different concentrations of DBCOtetra.” for “DBCOtetra compared with stereo control and single amino acid DBCO.”, “ADC. 5 μM, 10 μM or” for “ADC.”, “μM” for “μM Dap-DBCO,”, “DBCOtetra” for “DBCOtetra or DBCOtera(L)”, “1h” for “1 h”\nDifferent concentration of FAM-N3 and different time. M. smegmatis mc^2 155 was inoculated from stationary phase in 1:100 dilution to a fresh 7H9 media with ADC. 25 μM DBCOtetra were added to the culture tubes, and the cells were grown for 36-40 hours until stationary phase. The cells were harvested and spun down for 2 min at 3000 g, washed with PBST two times and resuspended in PBST. To a 96-well plate added 100 μL cells pre well with different concentration of FAM-N3 described in the main text, 9 wells each. […] The samples were then analyzed by Attune™ NxT Acoustic Focusing Cytometer. […]"}, "[2]": {"tested_on": "S. aureus (ATCC 25923)", "test": "Flow cytometry of S. aureus treated with thiol PG analogs / cystine enantiomers, then Mal-Fl", "type": "cell-based, Staphylococcus aureus", "conditions": "DTT 5 mM, 25 μM Mal-Fl", "description": "Flow cytometry analysis of S. aureus treated with thiol analogue panel. LB media containing 1 mM of each respective thiol analogue or dimethyl sulfoxide (DMSO) were prepared. S. aureus ATCC 25923 cells from an overnight culture were added to the medium (1:100 dilution) and allowed to grow overnight at 37° C. with shaking at 250 rpm. The cells were harvested at 4000 rpm and treated with 5 mM dithiothreitol (DTT) at the original culture volume for 5 minutes, to reverse any thiol oxidation that may have occurred. The cells were harvested at 4000 rpm and washed twice at the original culture volume with 1× phosphate-buffered saline (PBS) to remove residual DTT. […] The cells were washed once more to remove formaldehyde and then analyzed using the Attune NxT flow cytometer equipped with a 488 nm laser and 525/40 nm bandpass filter. The data were analyzed using the Attune NXT Software.\nFlow cytometry analysis of S. aureus treated with cystine enantiomers. […] The cells were washed once more to remove formaldehyde and then analyzed using the Attune NxT flow cytometer as described above.\nThe first goal was to identify which cysteine-based label would result in the highest level of thiol handles on the surface of S. aureus. […] Incubation of cells with D-cystine (2) led to a ˜12-fold increase in cellular fluorescence relative to DMSO treated cells. […]"}, "[3]": {"tested_on": "S. aureus (ΔclpX)", "test": "DBCO-pegn-Fl library in clpX deletion strain", "type": "cell-based, Staphylococcus aureus", "conditions": "1 mM D-LysAz, 25 μM probe, versus WT SA546", "procedure": "TSB media containing 1 mM of D-LysAz were prepared. S. aureus SA546, ΔclpX, or ΔclpXΔltaS cells from overnight cultures were added to the medium (1:100 dilution) and allowed to grow overnight at 37° C. with shaking at 250 rpm. The cells were harvested at 4000 rpm and washed three times at the original culture volume with 1×PBS. Each strain was then treated with the DBCO-pegn-Fl library. All library members were used at a 25 μM concentration for 30 minutes at 37° C. and protected from light. The samples were subsequently harvested at 4000 rpm and washed three times with 1×PBS followed by fixation with 2% formaldehyde in 1×PBS for 30 minutes. The cells were washed once more to remove formaldehyde and then analyzed using the Attune NxT flow cytometer as described above."}, "[4]": {"tested_on": "WT S. aureus (ATCC 25923)", "type": "cell-based, Staphylococcus aureus", "procedure": "LB media containing 1 mM of D-LysAz were prepared. S. aureus ATCC 25923 cells supplemented with 0.1 μg/mL tunicamycin, S. aureus ΔtarO cells supplemented with 150 μg/mL spectinomycin, or S. aureus ATCC 25923 cells from overnight cultures were added to the medium (1:100 dilution) and allowed to grow overnight at 37° C. with shaking at 250 rpm. The cells were harvested at 4000 rpm and washed three times at the original culture volume with 1×PBS. Each strain was then treated with the DBCO-pegn-Fl library. All library members were used at a 25 μM concentration for 30 minutes at 37° C. and protected from light. The samples were subsequently harvested at 4000 rpm and washed three times with 1×PBS followed by fixation with 2% formaldehyde in 1×PBS for 30 minutes. The cells were washed once more to remove formaldehyde and then analyzed using the Attune NxT flow cytometer as described above.\nLB media containing either 1 mM of D-LysAz, N^ε-azido-L-lysine hydrochloride (L-LysAz), or DMSO were prepared. S. aureus ATCC 25923 cells were added to the LB medium (1:100) and allowed to grow overnight at 37° C. with shaking at 250 rpm. The cells were harvested at 4000 rpm and washed three times at the original culture volume with 1×PBS. […] The cells were washed once more to remove formaldehyde and then analyzed using the Attune NxT flow cytometer as described above."}, "[5]": {"tested_on": "M. smegmatis mc^2 155", "test": "Ldt inhibition with meropenem (incorporation of TetD)", "type": "cell-based, Mycobacterium smegmatis", "conditions": "25 μM TetD, then Fl-az", "description": "Ldt inhibition with meropenem. M. smegmatis mc^2 155 was inoculated from the glycerol stock by 1 to 1000 dilution to the according media and grown for 24 hours until 0.5-0.6 OD. 25 μM DBCOtetra were added to the media, and the cells were aliquoted to a 96-well culture plate with different concentration of meropenem described in the main text, in triplicate respectively. The cells were then grown overnight to achieve stationary phase. The cells were harvested and spun down for 2 min at 3000 g, washed with PBST two times and resuspended in PBST. To a 96-well plate added 100 uL cells pre well with 50 μM FAM-N3 accordingly transferred from the culture plate. The plate was incubated in 37° C. for 1 h and spun down for 2 min at 3000 g. The supernatant was decanted, and the pellets were washed with PBST for 2 times and fixed with 4% formaldehyde for 15 mins. The samples were then analyzed by Attune™ NxT Acoustic Focusing Cytometer."}, "[6]": {"tested_on": "S. aureus (ΔtarO)", "test": "Flow cytometry of D-cystine tagged WTA deletion strain treated with maleimide accessibility probes", "type": "cell-based, Staphylococcus aureus", "conditions": "0.1 μg/mL tunicamycin, 25 μM Mal-Fl", "description": "(§2) Flow cytometry analysis of S. aureus strains treated with Mal-pegn-Fl and Mal-pron-Fl libraries. LB media containing 1 mM of D-cystine were prepared. S. aureus ATCC 25923, S. aureus ATCC 25923 supplemented with 0.1 μg/mL tunicamycin, S. aureus ΔtarO supplemented with 150 μg/mL spectinomycin, USA300, or S. aureus SCO1 cells from overnight cultures were added to the medium (1:100 dilution) and allowed to grow overnight at 37° C. with shaking at 250 rpm. The cells were harvested at 4000 rpm and treated with 5 mM DTT at the original culture volume for 5 minutes, to reverse any thiol oxidation that may have occurred. The cells were harvested at 4000 rpm and washed twice at the original culture volume with 1×PBS to remove residual DTT. Each strain was then treated with both libraries, Mal-pegn-Fl and Mal-pron-Fl, in parallel. All library members were used at a 25 μM concentration for 30 minutes at 37° C. and protected from light. The samples were subsequently harvested at 4000 rpm and washed three times with 1×PBS followed by fixation with 2% formaldehyde in 1×PBS for 30 minutes. The cells were washed once more to remove formaldehyde and then analyzed using the Attune NxT flow cytometer as described above.\n(§3) Tunicamycin scan. […] The cells were washed once more to remove formaldehyde and then analyzed using the Attune NxT flow cytometer as described above."}, "[7]": {"tested_on": "WT S. aureus (ATCC 25923)", "test": "Flow cytometry of D-cystine tagged S. aureus treated with Mal-pegn-Fl and Mal-pron-Fl accessibility probes, with or without tunicamycin", "type": "cell-based, Staphylococcus aureus", "conditions": "0.001-0.1 μg/mL tunicamycin, 25 μM Mal-Fl", "description": "as §2, §3"}},
  "data": [
    {"compound": "N[C@H](CNC(=O)CCC(=O)N1Cc2ccccc2C#Cc2ccccc21)C(=O)O", "note": "[D-DapD]", "values": [
      {"measurement": "PG labeling levels (fluorescence) above vehicle treated cells", "setting": "[1]; Msm, metabolic label then Fl-az", "value": "~40", "unit": "fold"}
    ]},
    {"compound": "N[C@H](CSSC[C@@H](N)C(=O)O)C(=O)O", "note": "[D-cystine]", "values": [
      {"measurement": "increase in cellular fluorescence relative to DMSO treated cells", "setting": "[2]; 1 mM PG analog overnight", "value": "~12", "unit": "fold"}
    ]},
    {"compound": "O=C1OC2(c3ccc(O)cc3Oc3cc(O)ccc32)c2ccc(NC(=S)NCCC(=O)N3Cc4ccccc4C#Cc4ccccc43)cc21", "note": "[DBCO-Fl, fluorescein-DBCO]", "values": [
      {"measurement": "permeation of probe on deletion of clpX alone", "setting": "[3]", "value": "did not lead to an increase"}
    ]},
    {"compound": "O=C(CCC(=O)N1Cc2ccccc2C#Cc2ccccc21)NCCOCCOCCOCCOCCOCCOCCOCCOCCOCCNC(=S)Nc1ccc(-c2c3ccc(=O)cc-3oc3cc(O)ccc23)c(C(=O)O)c1", "note": "[DBCO-peg9-Fl]", "values": [
      {"measurement": "increase in cellular fluorescence on co-incubation of cells with tunicamycin", "setting": "[4]", "value": "~17", "unit": "fold"}
    ]},
    {"compound": "[N-]=[N+]=Nc1ccc2c(c1)C1(OC2=O)c2ccc(O)cc2Oc2cc(O)ccc21", "note": "[Fl-az, 6-azido-fluorescein]", "values": [
      {"measurement": "cellular fluorescence with azide-modified fluorophore in cells pre-labeled with TetD", "setting": "[1]", "value": "concentration-dependent and time-dependent increase in cellular fluorescence"}
    ]},
    {"compound": "Cl.[N-]=[N+]=NNCCCC[C@H](N)C(=O)O", "note": "[L-LysAz, N^ε-azido-L-lysine hydrochloride]", "values": [
      {"measurement": "cellular fluorescence after DBCO-Fl", "setting": "[4]", "value": "background fluorescence levels"}
    ]},
    {"compound": "N[C@@H](CSSC[C@H](N)C(=O)O)C(=O)O", "note": "[L-cystine]", "values": [
      {"measurement": "cellular fluorescence compared to DMSO treated cells", "setting": "[2]; 1 mM overnight", "value": "minimal increase"}
    ]},
    {"compound": "C[C@@H](O)[C@H]1C(=O)N2C(C(=O)O)=C(S[C@@H]3CN[C@H](C(=O)N(C)C)C3)[C@H](C)[C@H]12", "note": "[meropenem]", "values": [
      {"measurement": "cellular fluorescence with increasing levels of meropenem in the presence of TetD", "setting": "[5]", "value": "concentration dependent decrease in cellular fluorescence"}
    ]},
    {"compound": "[N-]=[N+]=Nc1ccc2c(c1)C1(OC2=O)c2ccc(N)cc2Oc2cc(N)ccc21", "note": "[rhodamine 110, 6-azido-rhodamine 110]", "values": [
      {"measurement": "cellular fluorescence with azide-modified fluorophore in cells pre-labeled with TetD", "setting": "[1]", "value": "higher than Fl-az, albeit with a lower fold increase over unlabeled cells"}
    ]},
    {"compound": "tunicamycin", "values": [
      {"measurement": "effect of tunicamycin on ΔtarO cells", "setting": "[6]", "value": "minimal additive effect"},
      {"measurement": "effect of tunicamycin treatment on cellular fluorescence", "setting": "[7]", "value": "higher overall levels of cellular fluorescence in a concentration dependent manner"}
    ]}
  ]
}
